In ChEMBL document CHEMBL3621070, “Design and synthesis of 2-phenylnaphthalenoids and 2-phenylbenzofuranoids as DNA topoisomerase inhibitors and antitumor agents” (Eur J Med Chem, 2015):
Calls of active or inactive are those of the source. No cut-off for these calls is given here.

Key:
HepG2 = assay: Antiproliferative activity against human HepG2 cells after 72 hrs by SRB assay; assay type: functional, cell-based; conditions: HepG2, 72 h
MDA-MB-231 [1] = assay: Antiproliferative activity against human MDA-MB-231 cells assessed as growth inhibition at 10 uM after 72 hrs by SRB assay; assay type: functional; conditions: MDA-MB-231, 72 h, read-out: GI
[2] = target: DNA topoisomerase 2-alpha (Homo sapiens) (UniProt P11388); conditions: 100 uM
Sequence of DNA topoisomerase 2-alpha (Homo sapiens) (P11388 whole entry): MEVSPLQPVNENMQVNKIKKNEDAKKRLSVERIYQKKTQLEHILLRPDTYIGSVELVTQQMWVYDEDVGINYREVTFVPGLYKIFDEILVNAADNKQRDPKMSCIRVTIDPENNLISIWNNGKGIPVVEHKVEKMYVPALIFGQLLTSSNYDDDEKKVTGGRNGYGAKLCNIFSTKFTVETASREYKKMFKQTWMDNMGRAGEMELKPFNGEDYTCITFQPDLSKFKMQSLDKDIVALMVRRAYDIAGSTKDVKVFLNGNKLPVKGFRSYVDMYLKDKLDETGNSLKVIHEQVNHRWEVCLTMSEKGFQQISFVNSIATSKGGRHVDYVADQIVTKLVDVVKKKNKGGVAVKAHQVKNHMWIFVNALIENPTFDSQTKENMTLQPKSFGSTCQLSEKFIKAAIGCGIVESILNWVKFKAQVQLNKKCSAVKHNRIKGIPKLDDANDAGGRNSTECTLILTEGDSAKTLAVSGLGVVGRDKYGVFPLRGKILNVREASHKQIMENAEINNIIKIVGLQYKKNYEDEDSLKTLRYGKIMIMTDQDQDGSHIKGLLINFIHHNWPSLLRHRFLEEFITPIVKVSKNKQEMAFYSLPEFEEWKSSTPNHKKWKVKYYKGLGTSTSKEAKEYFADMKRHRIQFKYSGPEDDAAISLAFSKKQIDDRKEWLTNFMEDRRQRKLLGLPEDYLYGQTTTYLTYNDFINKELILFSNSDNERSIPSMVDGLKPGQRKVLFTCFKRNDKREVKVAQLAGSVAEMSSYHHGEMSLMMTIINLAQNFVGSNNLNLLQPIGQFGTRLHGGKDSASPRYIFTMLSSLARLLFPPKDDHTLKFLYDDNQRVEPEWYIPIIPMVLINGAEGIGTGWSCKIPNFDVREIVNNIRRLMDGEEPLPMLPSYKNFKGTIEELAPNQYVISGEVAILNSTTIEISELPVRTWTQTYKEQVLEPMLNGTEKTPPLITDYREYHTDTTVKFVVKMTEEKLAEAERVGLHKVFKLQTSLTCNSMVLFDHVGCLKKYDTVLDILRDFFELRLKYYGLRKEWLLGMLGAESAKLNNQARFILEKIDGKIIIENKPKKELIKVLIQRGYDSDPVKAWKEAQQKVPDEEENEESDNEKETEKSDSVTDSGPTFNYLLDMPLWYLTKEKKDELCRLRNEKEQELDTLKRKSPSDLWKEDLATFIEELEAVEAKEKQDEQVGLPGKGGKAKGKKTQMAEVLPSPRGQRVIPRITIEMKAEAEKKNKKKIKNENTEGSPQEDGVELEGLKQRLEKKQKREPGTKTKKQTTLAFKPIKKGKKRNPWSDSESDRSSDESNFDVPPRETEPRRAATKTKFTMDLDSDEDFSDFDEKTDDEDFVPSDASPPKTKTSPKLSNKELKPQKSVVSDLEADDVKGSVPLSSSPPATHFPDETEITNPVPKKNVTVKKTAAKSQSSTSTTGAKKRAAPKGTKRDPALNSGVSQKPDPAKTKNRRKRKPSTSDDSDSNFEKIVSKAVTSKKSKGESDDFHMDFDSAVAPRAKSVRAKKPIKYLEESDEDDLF
Description: Inhibition of human recombinant topoisomerase 2 alpha assessed as topoisomerase poison activity by measuring generation of linear DNA using circular supercoiled DNA at 100 uM by agarose gel electrophoresis

MDA-MB-435 [3] = assay: Antiproliferative activity against human MDA-MB-435 cells after 72 hrs by SRB assay; assay type: functional, cell-based; conditions: MDA-MB-435, 72 h
MDA-MB-231 [4] = assay: Inhibition of topoisomerase in human MDA-MB-231 cells assessed as ATM phosphorylation at Ser1981 residue at 10 uM after 24 hrs by western blot analysis; assay type: cell-based
PC-3 = assay: Antiproliferative activity against human PC3 cells after 72 hrs by SRB assay; assay type: functional, cell-based; conditions: PC-3, 72 h
MDA-MB-231 [5] = assay: Antiproliferative activity against human MDA-MB-231 cells after 72 hrs by SRB assay; assay type: functional, cell-based; conditions: MDA-MB-231, 72 h
MDA-MB-435 [6] = assay: Antiproliferative activity against human MDA-MB-435 cells assessed as growth inhibition at 10 uM after 72 hrs by SRB assay; assay type: functional; conditions: MDA-MB-435, 72 h, read-out: GI
[7] = target: DNA topoisomerase 2-alpha (Homo sapiens) (UniProt P11388); assay: Inhibition of human recombinant topoisomerase 2alpha assessed as relaxation of pBR322 DNA at 100 uM after 30 mins by agarose gel electrophoresis
Bos taurus = species: Bos taurus; assay: Inhibition of calf thymus topoisomerase 1 assessed as relaxation of pBR322 DNA at 100 uM after 30 mins by agarose gel electrophoresis
Nucleic Acid [8] = assay: Induction of DNA intercalation in Escherichia coli pBR322 plasmid DNA assessed as supercoiled DNA formation at 100 uM after 1 hr by agarose gel electrophoresis; assay type: nucleic-acid assay
Nucleic Acid [9] = assay: Induction of DNA intercalation in Escherichia coli pBR322 plasmid DNA assessed as supercoiled DNA formation at 10 ug/ml after 1 hr by agarose gel electrophoresis; assay type: nucleic-acid assay

COc1cc([C@@H]2c3cc4c(cc3[C@@H](O[C@@H]3O[C@@H]5CO[C@@H](C)O[C@H]5[C@H](O)[C@H]3O)[C@H]3COC(=O)[C@H]23)OCO4)cc(OC)c1O [ETOPOSIDE]
IC50 (HepG2): 30 µM | inhibition of growth at 10 µM (MDA-MB-231 [1]): 71% | inhibition [2]: Active | IC50 (MDA-MB-435 [3]): 1.7 µM | inhibition (MDA-MB-231 [4]): Active | IC50 (PC-3): 1 µM | IC50 (MDA-MB-231 [5]): 3.6 µM | inhibition of growth at 10 µM (MDA-MB-435 [6]): 96.1% | inhibition [7]: Active

Oc1ccc2oc(-c3ccc4c(c3)OCO4)cc2c1
inhibition of growth at 10 µM (MDA-MB-231 [1]): 3.6% | inhibition of growth at 10 µM (MDA-MB-435 [6]): 11.2%

Oc1ccc2cc(-c3ccc4c(c3)OCO4)ccc2c1
IC50 (HepG2): 2.6 µM | inhibition of growth at 10 µM (MDA-MB-231 [1]): 66.3% | IC50 (MDA-MB-435 [3]): 3.9 µM | IC50 (PC-3): 10.8 µM | IC50 (MDA-MB-231 [5]): 8.5 µM | inhibition of growth at 10 µM (MDA-MB-435 [6]): 86.9%

CC[C@@]1(O)C(=O)OCc2c1cc1n(c2=O)Cc2cc3cc(O)ccc3nc2-1
inhibition (Bos taurus): Active

Oc1ccc(-c2cc3cc(O)ccc3o2)cc1
inhibition of growth at 10 µM (MDA-MB-231 [1]): 29.5% | inhibition of growth at 10 µM (MDA-MB-435 [6]): 13.8%

O=[N+]([O-])c1cccc(-c2cc3cc([N+](=O)[O-])ccc3o2)c1
inhibition of growth at 10 µM (MDA-MB-231 [1]): 17.3% | inhibition of growth at 10 µM (MDA-MB-435 [6]): 4.3%

OCc1ccc(-c2cc3cc(O)ccc3o2)cc1
inhibition of growth at 10 µM (MDA-MB-231 [1]): 10.6% | inhibition of growth at 10 µM (MDA-MB-435 [6]): 42.6%

COc1cccc2c1C(=O)c1c(O)c3c(c(O)c1C2=O)C[C@@](O)(C(=O)CO)C[C@@H]3O[C@H]1C[C@H](N)[C@H](O)[C@H](C)O1
Activity (Nucleic Acid [8]): Active

CC[N+](C)(CC)CCC[n+]1c(-c2ccccc2)c2cc(N)ccc2c2ccc(N)cc21
Activity (Nucleic Acid [9]): Active
